This passage reports IC50 results from patent publication US20240158355A1, “BET SUBFAMILY INHIBITORS AND METHODS USING SAME” (Baylor College of Medicine, priority 2021, published 2024).

In the test the target is BRDT-BD2 (Homo sapiens (Human), UniProt Q58F21). The experiment in a line: AlphaScreen bromodomain proximity assay (competition with biotinylated (+)-JQ1), BRDT-BD2. In kind it is binding. On the technique in general: Bead proximity is the source of the signal in Alpha formats.

`COc1ccc(NC(=O)c2ccc3c(c2)c(-c2cc4ccccc4n2C)nn3C)cc1NC(C)=O` [compound 74, N-(3-Acetamido-4-methoxyphenyl)-1-methyl-3-(1-methyl-1H-indol-2-yl)-1H-indazole-5-carboxamide] showed an IC50 of 32 nM.
Compound `Cn1nc(-c2ccc(N)nc2)c2cc(C(=O)Nc3cccc(C(=O)O)c3)ccc21` [compound 54, 3-(3-(6-Aminopyridin-3-yl)-1-methyl-1H-indazole-5-carboxamido)benzoic acid] returned an IC50 of 381 nM.
For the compound `CNC(=O)c1ccc(C(=O)Nc2cc(NC(=O)c3ccc4c(c3)c(-c3ccc(Cl)cc3)nn4C)ccc2C)cc1` [compound 40, N^1-(5-(3-(4-Chlorophenyl)-1-methyl-1H-indazole-5-carboxamido)-2-methylphenyl)-N^4-methylterephthalamide], the IC50 is 106 nM. Against the preceding compound, the IC50 is about 3.6-fold lower.
In the case of `Cc1ccc(NC(=O)c2ccc3c(c2)c(-c2ccc(N)cc2C)nn3C)cc1C(N)=O` [compound 56, 3-(4-Amino-2-methylphenyl)-N-(3-carbamoyl-4-methylphenyl)-1-methyl-1H-indazole-5-carboxamide] it was 34 nM; in that of `COc1ccc(NC(=O)c2ccc3c(c2)c(-c2cc4ccccc4n2C)nn3C)cc1Br` [compound 68, N-(3-Bromo-4-methoxyphenyl)-1-methyl-3-(1-methyl-1H-indol-2-yl)-1H-indazole-5-carboxamide], 274 nM.
As for `CC(=O)Nc1cc(NC(=O)c2ccc3c(c2)c(-c2ccc(Cl)cc2Cl)nn3C)ccc1C` [compound 42, N-(3-Acetamido-4-methylphenyl)-3-(2,4-dichlorophenyl)-1-methyl-1H-indazole-5-carboxamide], the figure is 320 nM.
In the case of `CN1CCC(NC(=O)c2ccc3c(c2)c(-c2ccc(N)nc2)nn3C)CC1` [compound 50, 3-(6-Aminopyridin-3-yl)-1-methyl-N-(1-methylpiperidin-4-yl)-1H-indazole-5-carboxamide] it was over 200 nM.
In turn, `Cc1cc(N)ccc1-c1nn(C)c2ccc(C(=O)Nc3ccc(F)cc3)cc12` [compound 63, 3-(4-Amino-2-methylphenyl)-N-(4-fluorophenyl)-1-methyl-1H-indazole-5-carboxamide] yielded an IC50 of 101 nM.
The compound `CCOc1ccc(NC(=O)c2ccc3c(c2)c(-c2ccc(N)cc2C)nn3C)cc1` [compound 62, 3-(4-Amino-2-methylphenyl)-N-(4-ethoxyphenyl)-1-methyl-1H-indazole-5-carboxamide] showed an IC50 of 48 nM.
Turning to `COc1ccc(NC(=O)c2ccc3c(c2)c(-c2cc4ccccc4n2C)nn3C)cc1C(F)(F)F` [compound 70, N-(4-Methoxy-3-(trifluoromethyl)phenyl)-1-methyl-3-(1-methyl-1H-indol-2-yl)-1H-indazole-5-carboxamide], the IC50 was 626 nM.
The compound `Cc1ccc(NC(=O)c2ccc3c(c2)c(-c2ccc(N)nc2)nn3C)cc1NC(=O)C1CCCCC1` [compound 47, 3-(6-Aminopyridin-3-yl)-N-(3-(cyclohexanecarboxamido)-4-methylphenyl)-1-methyl-1H-indazole-5-carboxamide] gave an IC50 of 113 nM.
In the case of `CC(=O)Nc1cc(NC(=O)c2ccc3c(c2)c(-c2ccc(Cl)cc2C)nn3C)ccc1C` [compound 41, N-(3-Acetamido-4-methylphenyl)-3-(4-chloro-2-methylphenyl)-1-methyl-1H-indazole-5-carboxamide] it was 58 nM; in that of `CNC(=O)c1ccc(C(=O)Nc2cc(NC(=O)c3ccc4c(c3)c(-c3ccc(N5CCNCC5)nc3)nn4C)ccc2C)cc1` [compound 38], over 10000 nM; in that of `Cc1ccc(NC(=O)c2ccc3c(c2)c(-c2ccc(N)nc2)nn3C)cc1NC(=O)[C@H]1CC[C@@H](N)CC1` [compound 48, N-(3-((1s,4s)-4-Aminocyclohexane-1-carboxamido)-4-methylphenyl)-3-(6-aminopyridin-3-yl)-1-methyl-1H-indazole-5-carboxamide], 51 nM.
The compound `Cc1cc(N)ccc1-c1nn(C)c2ccc(C(=O)Nc3ccc(Cl)cc3)cc12` [compound 64, 3-(4-Amino-2-methylphenyl)-N-(4-chlorophenyl)-1-methyl-1H-indazole-5-carboxamide] yielded an IC50 of 209 nM. This IC50 is about 4.1-fold higher than that of the compound before.
As for `CC(=O)N1CCC(NC(=O)c2ccc3c(c2)c(-c2ccc(N)nc2)nn3C)CC1` [compound 51, N-(1-Acetylpiperidin-4-yl)-3-(6-aminopyridin-3-yl)-1-methyl-1H-indazole-5-carboxamide], the figure is over 200 nM; as for `COc1ccc(NC(=O)c2ccc3c(c2)c(-c2cc4ccccc4n2C)nn3C)cc1S(N)(=O)=O` [compound 73, N-(4-Methoxy-3-sulfamoylphenyl)-1-methyl-3-(1-methyl-1H-indol-2-yl)-1H-indazole-5-carboxamide], 111 nM; as for `CNC(=O)c1ccc(C(=O)Nc2cc(NC(=O)c3ccc4c(c3)c(-c3ccc(N5CCOCC5)nc3)nn4C)ccc2C)cc1` [compound 39, N^1-Methyl-N^4-(2-methyl-5-(1-methyl-3-(6-morpholinopyridin-3-yl)-1H-indazole-5-carboxamido)phenyl)terephthalamide], over 10000 nM.
As for `CNC(=O)c1cccc(NC(=O)c2ccc3c(c2)c(-c2ccc(N)cc2C)nn3C)c1` [compound 57, 3-(4-Amino-2-methylphenyl)-1-methyl-N-(3-(methylcarbamoyl)phenyl)-1H-indazole-5-carboxamide], the IC50 stood at 29 nM.
In turn, `Cn1nc(-c2ccc(N)nc2)c2cc(C(=O)NC3CCNCC3)ccc21` [compound 53, 3-(6-Aminopyridin-3-yl)-1-methyl-N-(piperidin-4-yl)-1H-indazole-5-carboxamide] came in with an IC50 of over 200 nM.
In the case of `COc1ccc(NC(=O)c2ccc3c(c2)c(-c2ccc(NC(C)=O)cc2C)nn3C)cc1` [compound 66, 3-(4-Acetamido-2-methylphenyl)-N-(4-methoxyphenyl)-1-methyl-1H-indazole-5-carboxamide] it was over 10000 nM; in that of `COc1ccc(NC(=O)c2ccc3c(c2)c(-c2ccncc2C)nn3C)cc1` [compound 44, N-(4-Methoxyphenyl)-1-methyl-3-(3-methylpyridin-4-yl)-1H-indazole-5-carboxamide], 705 nM.
As for `Cc1ccc(NC(=O)c2ccc3c(c2)c(-c2ccc(N)cc2C)nn3C)cc1NS(C)(=O)=O` [compound 58, 3-(4-Amino-2-methylphenyl)-1-methyl-N-(4-methyl-3-(methylsulfonamido)phenyl)-1H-indazole-5-carboxamide], the figure is 67 nM; as for `COc1ccc(NC(=O)c2ccc3c(c2)c(-c2cc4ccccc4n2C)nn3C)c(C(N)=O)c1` [compound 75, N-(2-Carbamoyl-4-methoxyphenyl)-1-methyl-3-(1-methyl-1H-indol-2-yl)-1H-indazole-5-carboxamide], 4370 nM; as for `Cc1ccc(NC(=O)c2ccc3c(c2)c(-c2ccc(N)cc2C)nn3C)cc1` [compound 60, 3-(4-Amino-2-methylphenyl)-1-methyl-N-(p-tolyl)-1H-indazole-5-carboxamide], 91 nM.
As for `Cc1ccc(NC(=O)c2ccc3c(c2)c(-c2ccc(N)nc2)nn3C)cc1NC(=O)N1CCNCC1` [compound 46, 3-(6-Aminopyridin-3-yl)-1-methyl-N-(4-methyl-3-(piperazine-1-carboxamido)phenyl)-1H-indazole-5-carboxamide], the figure is 79 nM.

What is called IC50 is the concentration at which inhibition is half-maximal. Read a low IC50 as greater potency.
